Source: patent US20240270821A1, “GIP/GLP1/GCG TRI-RECEPTOR AGONISTS AND USES THEREOF” (priority 2023, published 2024)
Where two headings read alike, the source gives them in different places. Starred links: 1 amine or outer side, 2 acyl side, 3 side chain; linkers in the order of their positions; H or OH if unused. Non-standard residues stand in square brackets, D forms with d. Residues, ends and D or L forms follow the SMILES beside them. Groups on a side chain read outwards from the residue. No end group written: not given here. *: point of attachment. C18 diacid = O=C(O)CCCCCCCCCCCCCCCCC(=O)*; αMePhe(2-F) = C[C@](N)(Cc1ccccc1F)C(=O)O; γGlu = O=C(O)[C@H](CCC(=O)[*:2])N[*:1]; αMe4Pal = C[C@](N)(Cc1ccncc1)C(=O)O; αMeY = C[C@](N)(Cc1ccc(O)cc1)C(=O)O; 4Pal = N[C@@H](Cc1ccncc1)C(=O)O; αMeL = CC(C)C[C@](C)(N)C(=O)O; αMeS = C[C@](N)(CO)C(=O)O; Orn = NCCC[C@H](N)C(=O)O; AEEA = NCCOCCOCC(=O)O; Aib = CC(C)(N)C(=O)O

Experiments:
Type in all cases: cell-based
hGIPR [1] = biological target: T1, hGIPR (Homo sapiens, UniProt P48546); assay: Functional cAMP activity in the presence of 1% HSA; conditions: read-out: cAMP Rel EC50, hGIPR
T1 sequence (P48546 22-466): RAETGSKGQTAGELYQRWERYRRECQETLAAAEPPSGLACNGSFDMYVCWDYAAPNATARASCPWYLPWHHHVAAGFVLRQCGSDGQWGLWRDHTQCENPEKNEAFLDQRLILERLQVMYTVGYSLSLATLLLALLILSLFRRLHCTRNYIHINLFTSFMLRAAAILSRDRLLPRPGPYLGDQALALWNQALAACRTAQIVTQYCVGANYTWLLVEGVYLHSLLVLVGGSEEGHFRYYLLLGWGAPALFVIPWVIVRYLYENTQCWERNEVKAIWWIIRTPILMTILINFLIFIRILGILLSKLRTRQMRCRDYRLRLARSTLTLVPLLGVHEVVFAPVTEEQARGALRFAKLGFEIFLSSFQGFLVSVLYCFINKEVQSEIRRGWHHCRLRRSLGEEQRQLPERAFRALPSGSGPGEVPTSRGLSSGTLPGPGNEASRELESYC

human GcgR = human GcgR (Homo sapiens, UniProt P47871); assay: Functional cAMP activity in the presence of 1% HSA; conditions: read-out: cAMP Rel EC50, hGcgR
human GcgR, sequence (P47871 26-477): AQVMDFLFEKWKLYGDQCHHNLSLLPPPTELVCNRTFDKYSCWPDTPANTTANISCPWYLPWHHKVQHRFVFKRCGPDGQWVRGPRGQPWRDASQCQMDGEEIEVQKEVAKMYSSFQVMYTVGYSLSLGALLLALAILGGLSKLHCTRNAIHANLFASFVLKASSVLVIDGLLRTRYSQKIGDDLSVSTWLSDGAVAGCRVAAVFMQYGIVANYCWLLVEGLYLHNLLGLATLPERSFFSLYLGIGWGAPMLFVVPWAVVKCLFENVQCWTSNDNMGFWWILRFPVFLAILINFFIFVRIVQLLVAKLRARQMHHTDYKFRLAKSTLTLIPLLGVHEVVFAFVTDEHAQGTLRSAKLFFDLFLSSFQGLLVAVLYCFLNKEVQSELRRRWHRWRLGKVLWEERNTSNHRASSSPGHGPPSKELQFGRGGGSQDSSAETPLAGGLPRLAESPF

hGcgR = hGcgR (Homo sapiens, UniProt P47871); assay: Functional cAMP activation in the presence of 0.1% casein (no HSA); conditions: read-out: Relative cAMP EC50, hGcgR;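 also: intracellular cAMP rise after 30 min at 37 °C, read by HTRF against a cAMP standard curve, scaled from buffer only (0%) to maximal control ligand response (100%)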
hGcgR, sequence (P47871 26-477): as above

hGIPR [2] = biological target: T1, hGIPR; assay: as above; conditions: read-out: Relative cAMP EC50, hGIPR
hGLP-1R [3] = biological target: T2, hGLP-1R (Homo sapiens, UniProt P43220); assay: as above; conditions: read-out: Relative cAMP EC50, hGLP-1R;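 also: intracellular cAMP rise after 30 min at 37 °C read by HTRF, normalized between buffer only (0%) and maximal control ligand (100%), four-parameter variable-slope fit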
T2 sequence (P43220 24-463): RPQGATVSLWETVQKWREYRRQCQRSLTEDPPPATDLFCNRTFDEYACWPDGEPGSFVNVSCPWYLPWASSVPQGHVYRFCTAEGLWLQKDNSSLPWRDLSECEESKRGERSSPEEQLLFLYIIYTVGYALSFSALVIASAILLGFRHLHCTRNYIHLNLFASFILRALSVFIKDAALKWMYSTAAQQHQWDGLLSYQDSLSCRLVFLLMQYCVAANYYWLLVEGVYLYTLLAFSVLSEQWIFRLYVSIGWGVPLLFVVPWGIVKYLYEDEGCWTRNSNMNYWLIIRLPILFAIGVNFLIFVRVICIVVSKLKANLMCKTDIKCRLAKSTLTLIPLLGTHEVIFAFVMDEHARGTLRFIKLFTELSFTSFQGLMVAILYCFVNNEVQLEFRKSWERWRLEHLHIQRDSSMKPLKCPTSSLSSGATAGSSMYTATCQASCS

hGLP-1R [4] = biological target: T2, hGLP-1R; assay: Functional cAMP activity in the presence of 1% HSA; conditions: read-out: cAMP Rel EC50, hGLP-1R
[5] = HEK-293 clonal cell line, 1% HSA, geometric mean of relative EC50
[6] = in the presence of 0.1% casein (no HSA), geometric mean of relative EC50
[7] = in the presence of 0.1% casein (no HSA), geometric mean
[8] = 0.1% casein, no HSA, geometric mean
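For Relative cAMP EC50, hGIPR in this document: intracellular cAMP rise after 30 min at 37 °C read by HTRF against a standard curve, scaled between buffer alone (0%) and top control ligand concentration (100%), four-parameter fit.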

Molecule	EC50 (hGIPR [1])	EC50 (human GcgR)	EC50 (hGcgR; [7])	EC50 (hGIPR [2]; [7])	EC50 (hGLP-1R [3]; [7])	EC50 (hGLP-1R [4])	EC50 (hGcgR)	EC50 (hGIPR [2])	EC50 (hGLP-1R [3])	also measured
Y[Aib]QGT[αMePhe(2-F)]TSD[4Pal][αMeS]I[αMeL]LD[Orn]K([AEEA-γGlu-C18 diacid])AA[Aib]EFI[dE][αMeY]LIEGGPSSGEPPPSGTE-NH2 [Example 719]	–	–	–	–	–	–	–	–	–	EC50 (hGIPR [1]; [5]): 0.882 nM; EC50 (human GcgR; [5]): 181 nM; EC50 (hGcgR; [6]): 1.44 nM; EC50 (hGIPR [2]; [6]): 0.00998 nM; EC50 (hGLP-1R [3]; [6]): 0.22 nM; EC50 (hGLP-1R [4]; [5]): 23.2 nM
H-Y[Aib]QGTFTSD[4Pal]S[Orn][αMeL]LD[Orn]K([γGlu-γGlu-C18 diacid])AQ[αMe4Pal][Orn]FIE[αMeY]LIEGGPSSGAPPPSGSEE-NH2 [Example 974]	80.9 nM	870 nM	3.7 nM	0.607 nM	1.57 nM	283 nM	–	–	–	–
Y[Aib]QGT[αMePhe(2-F)]TSD[4Pal][αMeS]I[αMeL]LD[Orn]K([γGlu-γGlu-C18 diacid])AQ[Aib][Orn]FI[dE][αMeY]LQEGGPSSGEPPPEGTE-NH2 [Example 503]	2.02 nM	233 nM	–	–	–	26.1 nM	3.98 nM	0.0518 nM	0.525 nM	–
H-Y[Aib]QGT[αMePhe(2-F)]TSD[4Pal]SILLDKK([γGlu-γGlu-C18 diacid])AQ[Aib]AFIEYLEEGGPSSGAPPPSGEEE-NH2 [Example 611]	7.35 nM	627 nM	–	–	–	146 nM	6.8 nM	0.126 nM	1.63 nM	–
H-Y[Aib]QGTFTSD[4Pal]SQ[αMeL]LD[Orn]K([γGlu-γGlu-C18 diacid])AQ[αMe4Pal]AFIEYLIAGGPSSGEPPPSGSE-NH2 [Example 1008]	15.2 nM	1010 nM	7.47 nM	0.14 nM	1.09 nM	126 nM	–	–	–	–
H-Y[Aib]QGTFTSD[4Pal]SQ[αMeL]LD[Orn]K([AEEA-γGlu-C18 diacid])AQ[αMe4Pal]AFIE[αMeY]LIEGGPSSGAPPPSGSEE-NH2 [Example 1041]	75.7 nM	1720 nM	7.71 nM	0.365 nM	1.24 nM	316 nM	–	–	–	–
H-Y[Aib]QGTFTSD[4Pal]SQ[αMeL]LDKK([γGlu-γGlu-C18 diacid])AQ[αMe4Pal]AFIEYLLAGGPSSGAPPPSGSEE-NH2 [Example 1036]	13 nM	353 nM	2.05 nM	0.114 nM	6.87 nM	1080 nM	–	–	–	–
H-Y[Aib]QGTFTSD[4Pal]SK[αMeL]LDKK([AEEA-γGlu-C18 diacid])AQ[Aib]AFIEYLIE[Aib]GPSSGAPPPSGSEEE-NH2 [Example 903]	31.2 nM	1630 nM	12.9 nM	0.277 nM	2.7 nM	387 nM	–	–	–	–
Y[Aib]QGT[αMePhe(2-F)]TSD[4Pal][αMeS]I[αMeL]LD[Orn]K([AEEA-γGlu-C18 diacid])AQ[αMe4Pal]EFI[dE][αMeY]LIEGGPSSGEPPPEGTGE-NH2 [Example 763]	1.16 nM	222 nM	–	–	–	42.5 nM	1.57 nM	0.00719 nM	0.302 nM	–
H-Y[Aib]QGT[αMePhe(2-F)]TSDYSKLLDKIAQK([AEEA-γGlu-C18 diacid])AFIEYLIEGGPSSGEPPPSEG-NH2 [Example 330]	7.33 nM	398 nM	3.91 nM	0.0783 nM	0.63 nM	91.8 nM	–	–	–	–
H-Y[Aib]QGT[αMePhe(2-F)]TSD[4Pal][αMeS]I[αMeL]LD[Orn]K([AEEA-γGlu-C18 diacid])AQ[αMe4Pal]EFI[dE][αMeY]LIEGGPSSGAPPPEGGGEE-NH2 [Example 1216]	0.914 nM	225 nM	–	–	–	66.9 nM	–	–	–	EC50 (hGcgR; [8]): 1.83 nM; EC50 (hGIPR [2]; [8]): 0.00921 nM; EC50 (hGLP-1R [3]; [8]): 0.65 nM
H-Y[Aib]QGT[αMePhe(2-F)]TSD[4Pal]SILLDKK([γGlu-γGlu-C18 diacid])AQ[Aib]AFIEWLEEGGPSSGAPPPSGTE-NH2 [Example 549]	3.67 nM	655 nM	–	–	–	76.2 nM	3.41 nM	0.0255 nM	0.395 nM	–
H-Y[Aib]QGT[αMePhe(2-F)]TSD[4Pal][αMeS]I[αMeL]LD[Orn][Orn]([AEEA-γGlu-C18 diacid])AQ[αMe4Pal]EFI[dE][αMeY]LIEGGPSSGAPPPSGSE-NH2 [Example 1212]	0.614 nM	230 nM	–	–	–	38.2 nM	–	–	–	EC50 (hGcgR; [8]): 1.71 nM; EC50 (hGIPR [2]; [8]): 0.00702 nM; EC50 (hGLP-1R [3]; [8]): 0.357 nM
H-Y[Aib]QGT[αMePhe(2-F)]TSD[4Pal][αMeS]I[αMeL]LD[Orn]K([AEEA-γGlu-C18 diacid])AQ[Aib][Orn]FIEYLIEAGPSSGEPPPEEG-NH2 [Example 484]	1.59 nM	204 nM	–	–	–	16 nM	3.99 nM	0.0152 nM	0.201 nM	–
CC[C@H](C)[C@H](NC(=O)[C@H](CC(C)C)NC(=O)[C@H](Cc1ccc(O)cc1)NC(=O)[C@@H](CCC(=O)O)NC(=O)[C@@H](NC(=O)[C@H](Cc1ccccc1)NC(=O)[C@H](CCCN)NC(=O)C(C)(C)NC(=O)[C@H](CCC(N)=O)NC(=O)[C@H](C)NC(=O)[C@H](CCCCNC(=O)CC[C@H](NC(=O)CC[C@H](NC(=O)CCCCCCCCCCCCCCCCC(=O)O)C(=O)O)C(=O)O)NC(=O)[C@H](CCCN)NC(=O)[C@H](CC(=O)O)NC(=O)[C@H](CC(C)C)NC(=O)[C@](C)(CC(C)C)NC(=O)[C@@H](NC(=O)[C@](C)(CO)NC(=O)[C@H](Cc1ccncc1)NC(=O)[C@H](CC(=O)O)NC(=O)[C@H](CO)NC(=O)[C@@H](NC(=O)[C@](C)(Cc1ccccc1F)NC(=O)[C@@H](NC(=O)CNC(=O)[C@H](CCC(N)=O)NC(=O)C(C)(C)NC(=O)[C@@H](N)Cc1ccc(O)cc1)[C@@H](C)O)[C@@H](C)O)[C@@H](C)CC)[C@@H](C)CC)C(=O)N[C@@H](CCC(=O)O)C(=O)NCC(=O)NCC(=O)N1CCC[C@H]1C(=O)N[C@@H](CO)C(=O)N[C@@H](CO)C(=O)NCC(=O)N[C@@H](CCC(=O)O)C(=O)N1CCC[C@H]1C(=O)N1CCC[C@H]1C(=O)N1CCC[C@H]1C(=O)N[C@@H](CCC(=O)O)C(N)=O [Example 448] (H-Y[Aib]QGT[αMePhe(2-F)]TSD[4Pal][αMeS]I[αMeL]LD[Orn]K([γGlu-γGlu-C18 diacid])AQ[Aib][Orn]FI[dE]YLIEGGPSSGEPPPE-NH2)	1.35 nM	302 nM	–	–	–	19.5 nM	4.54 nM	0.0171 nM	0.336 nM	–
CC[C@H](C)[C@H](NC(=O)[C@H](CO)NC(=O)[C@H](Cc1ccc(O)cc1)NC(=O)[C@H](CC(=O)O)NC(=O)[C@H](CO)NC(=O)[C@@H](NC(=O)[C@](C)(Cc1ccccc1F)NC(=O)[C@@H](NC(=O)CNC(=O)[C@H](CCC(N)=O)NC(=O)C(C)(C)NC(=O)[C@@H](N)Cc1ccc(O)cc1)[C@@H](C)O)[C@@H](C)O)C(=O)N[C@@H](CC(C)C)C(=O)N[C@@H](CC(C)C)C(=O)N[C@@H](CC(=O)O)C(=O)N[C@@H](CCCN)C(=O)N[C@@H](CCCCNC(=O)COCCOCCNC(=O)COCCOCCNC(=O)CC[C@H](NC(=O)CCCCCCCCCCCCCCCCC(=O)O)C(=O)O)C(=O)N[C@@H](C)C(=O)N[C@@H](CCC(N)=O)C(=O)NC(C)(C)C(=O)N[C@@H](C)C(=O)N[C@@H](Cc1ccccc1)C(=O)N[C@H](C(=O)N[C@H](CCC(=O)O)C(=O)N[C@@H](Cc1ccc(O)cc1)C(=O)N[C@@H](CC(C)C)C(=O)N[C@@H](CC(C)C)C(=O)N[C@@H](CCC(=O)O)C(=O)NCC(=O)NCC(=O)N1CCC[C@H]1C(=O)N[C@@H](CO)C(=O)N[C@@H](CO)C(=O)NCC(=O)N[C@@H](C)C(=O)N1CCC[C@H]1C(=O)N1CCC[C@H]1C(=O)N1CCC[C@H]1C(=O)N[C@@H](CO)C(N)=O)[C@@H](C)CC [Example 427]	4.25 nM	1440 nM	–	–	–	42.9 nM	3.81 nM	0.0121 nM	0.282 nM	–
H-Y[Aib]QGTFTSD[4Pal]SQ[αMeL]LDKK([γGlu-γGlu-C18 diacid])AQ[αMe4Pal]AFIE[αMe4Pal]LIEGGPSSGAPPPSGSEE-NH2 [Example 957]	25 nM	947 nM	4.18 nM	0.213 nM	5.01 nM	747 nM	–	–	–	–
